Measurements published in patent CN109260209A, “一种骨化三醇软胶囊及其制备方法” (CP Pharmaceutical Qingdao Co Ltd, priority 2018, dated 2019).

Columns and labels:
Format in all cases: in vivo, SD rat
[1] = test system: ovariectomized osteoporotic rats (去卵巢骨质疏松大鼠); assay: Osteocalcin in ovariectomized osteoporotic rats, radioimmunoassay (Table 5)
[2] = test system: ovariectomized osteoporotic rats (去卵巢骨质疏松大鼠); assay: Uterine wet weight in ovariectomized osteoporotic rats (Table 10); settings: three months after surgery; for uterine wet weight (result in words): compared with negative control group; for uterine wet weight: oral once daily, 1 month, nilestriol 1 mg/kg, calcitriol 5 μg/kg, emodin 5 μg/kg, calcitriol + emodin 5 μg/kg
[3] = test system: ovariectomized osteoporotic rats (去卵巢骨质疏松大鼠); assay: Serum alkaline phosphatase in ovariectomized osteoporotic rats (Table 9); settings: three months after surgery, compared with negative control group
[4] = test system: ovariectomized osteoporotic rats (去卵巢骨质疏松大鼠); assay: Serum calcitonin in ovariectomized osteoporotic rats, radioimmunoassay (Table 4)
[5] = test system: ovariectomized osteoporotic rats (去卵巢骨质疏松大鼠); assay: Serum calcium in ovariectomized osteoporotic rats (Table 7); settings: for serum calcium content (result in words): compared with negative control group
[6] = test system: ovariectomized osteoporotic rats (去卵巢骨质疏松大鼠); assay: Serum estradiol in ovariectomized osteoporotic rats, radioimmunoassay (Table 6)
[7] = test system: ovariectomized osteoporotic rats (去卵巢骨质疏松大鼠); assay: Serum phosphorus in ovariectomized osteoporotic rats (Table 8); settings: for serum phosphorus content (result in words): compared with negative control group
[8] = test system: ovariectomized osteoporotic rats (去卵巢骨质疏松大鼠); assay: Bone mineral content (total and trabecular) in ovariectomized osteoporotic rats (Table 3); settings: oral once daily, 1 month; calcitriol 5 μg/kg, emodin 5 μg/kg, calcitriol + emodin 5 μg/kg; right tibia
[9] = test system: ovariectomized osteoporotic rats (去卵巢骨质疏松大鼠); assay: Bone mineral density (total and trabecular) in ovariectomized osteoporotic rats (Table 2); settings: oral once daily, 1 month; calcitriol 5 μg/kg, emodin 5 μg/kg, calcitriol + emodin 5 μg/kg; right tibia
[10] = three months after surgery, oral once daily, 1 month, nilestriol 1 mg/kg, calcitriol 5 μg/kg, emodin 5 μg/kg, calcitriol + emodin 5 μg/kg

SMILES	osteocalcin content ([1]; before surgery (baseline))	osteocalcin content [1, 10]	uterine wet weight (result in words) [2]	uterine wet weight [2]	serum alkaline phosphatase content (result in words) [3]	serum calcitonin content ([4]; before surgery (baseline))	serum calcitonin content [4, 10]	calcium content ([5]; before surgery (baseline))	serum calcium content (result in words) ([5]; three months after surgery)	calcium content [5, 10]	serum estradiol content ([6]; before surgery (baseline))	serum estradiol content [6, 10]	phosphorus content ([7]; before surgery (baseline))	serum phosphorus content (result in words) ([7]; three months after surgery)	phosphorus content [7, 10]	osteocalcin content (result in words) ([1]; three months after surgery)	bone mineral content (result in words) [8]	bone mineral density (result in words) [9]	serum calcitonin content (result in words) ([4]; three months after surgery)	serum estradiol content (result in words) ([6]; three months after surgery)
C#C[C@]1(O)[C@H](O)C[C@H]2[C@@H]3CCc4cc(OC5CCCC5)ccc4[C@H]3CC[C@@]21C [阳性对照组, 尼尔雌醇]	2.98 ± 0.89 ng/L	4.12 ± 1.32 ng/L	子宫湿重明显高于阴性对照组	118.43 ± 12.43 mg	与阴性对照组相比出现下降	231.35 ± 20.11 ng/L	459.34 ± 11.43 ng/L	4.19 ± 0.43 mmol/L	血清钙和磷含量与阴性对照组相比上升	4.65 ± 0.12 mmol/L	12.65 ± 2.21 pg/mL	20.43 ± 1.54 pg/mL	1.55 ± 0.45 mmol/L	血清钙和磷含量与阴性对照组相比上升	1.87 ± 0.46 mmol/L	–	–	–	–	–
C=C1/C(=C\C=C2/CCC[C@]3(C)[C@@H]([C@H](C)CCCC(C)(C)O)CC[C@@H]23)C[C@@H](O)C[C@@H]1O [骨化三醇组, 9,10-开环胆甾-5Z,7E,10(19)-三烯-1α,3β,25-三醇]	3.22 ± 1.22 ng/L	3.45 ± 1.21 ng/L	子宫湿重明显高于阴性对照组	90.43 ± 10.43 mg	与阴性对照组相比也出现下降	241.23 ± 11.43 ng/L	321.34 ± 13.43 ng/L	4.10 ± 0.54 mmol/L	血清钙和磷含量与阴性对照组相比上升	4.24 ± 0.41 mmol/L	13.21 ± 1.56 pg/mL	15.34 ± 1.53 pg/mL	1.61 ± 0.38 mmol/L	血清钙和磷含量与阴性对照组相比上升	1.71 ± 0.53 mmol/L	骨钙素含量上升	产生一定的提高骨含量的作用	产生一定的增强骨密度的作用	血清降钙素含量上升	血清雌二醇含量上升
Cc1cc(O)c2c(c1)C(=O)c1cc(O)cc(O)c1C2=O [大黄素组, 大黄素]	3.09 ± 1.21 ng/L	3.38 ± 0.98 ng/L	子宫湿重明显高于阴性对照组	89.34 ± 19.32 mg	与阴性对照组相比也出现下降	222.43 ± 19.43 ng/L	265.24 ± 22.43 ng/L	4.21 ± 0.24 mmol/L	血清钙和磷含量与阴性对照组相比上升	4.21 ± 0.56 mmol/L	12.87 ± 2.01 pg/mL	14.67 ± 1.76 pg/mL	1.58 ± 0.43 mmol/L	血清钙和磷含量与阴性对照组相比上升	1.73 ± 0.65 mmol/L	骨钙素含量上升	产生一定的提高骨含量的作用	产生一定的增强骨密度的作用	血清降钙素含量上升	血清雌二醇含量上升
